Molecular target: T1, IRAK4 (Homo sapiens, UniProt Q9NWZ3)
T1 construct: endogenous in cells; host or cells: OCI-LY10
T1 sequence (Q9NWZ3 1-460): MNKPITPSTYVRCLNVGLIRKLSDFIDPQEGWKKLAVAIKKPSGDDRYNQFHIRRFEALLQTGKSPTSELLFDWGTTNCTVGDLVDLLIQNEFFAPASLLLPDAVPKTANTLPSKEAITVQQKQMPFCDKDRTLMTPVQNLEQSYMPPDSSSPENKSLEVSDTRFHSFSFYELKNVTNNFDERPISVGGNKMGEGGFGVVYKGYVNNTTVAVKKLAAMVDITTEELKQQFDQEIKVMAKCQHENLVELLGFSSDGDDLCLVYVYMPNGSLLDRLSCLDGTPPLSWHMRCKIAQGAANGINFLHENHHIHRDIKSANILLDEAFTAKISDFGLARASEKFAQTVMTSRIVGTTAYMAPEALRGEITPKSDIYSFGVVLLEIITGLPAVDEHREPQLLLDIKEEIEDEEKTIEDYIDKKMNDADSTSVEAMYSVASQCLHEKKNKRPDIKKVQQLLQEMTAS
Assay: IRAK4 MSD degradation in OCI-LY10
Format: cell-based
Conditions: OCI-LY10 cells, 24 hrs, Meso Scale Discovery
Procedure: Degradation of IRAK4 in OCI-LY10 was quantitatively measured using Meso Scale Discovery technology. OCI-LY10 cells were seeded in 96-well plates (Coming 3799) with a density of 300,000 cells per well in 100 μL fresh media. Compounds were then added to the assay plates with a final top concentration of 1 to 10 μM in a 1:3 dilution series with total of 8 doses. The assay plates were then incubated for 4 to 24 hours at 37° C. under 5% CO2. The assay plates were then centrifuged for 5 minutes and the cell pellets were treated with 100 μL/well RIPA lysis buffer (Boston BioProducts BP-115D) with proteinase inhibitors. To prepare MSD assay plates (Meso Scale Discovery Catalog number L15XA-3), the plates were coated with […] capture antibody (mouse Anti-IRAK4 antibody [2H9], ab119942) in PBS, at 40 μL/well. The plates were then incubated overnight at 4° C., washed 3 times with 150 μL/well TBST buffer (Cell Signaling Technology, Catalog number 9997S) and blocked with 150 μL/well blocking buffer (Meso Scale Discovery Catalog number R93BA-4). Cell lysates were then added to MSD assay plates and the plates were incubated at room temperature for 1 hour. The plates were then washed 3 times with 150 µL/well TBST buffer and 25 μL/well primary detection antibody (rabbit Anti-IRAK4 antibody [Y279], from Abcam. Catalog number ab32511, 1 μg/mL). The assay plates were then incubated at room temperature for 1 hour, washed 3 times with 150 μL/well TBST buffer and 25 μL/well secondary detection antibody, SULFO-TAG anti-rabbit antibody were added (anti rabbit antibody from Meso Scale Discovery, Catalog number R32AB-1, 1 μg/mL). The assay plates were then incubated at room temperature for 1 hour, washed 3 times with 150 μL/well TBST buffer, and 150 μL/well MSD reading buffer (Meso Scale Discovery catalog number R92TC-2) was added. The plates were then analyzed by a MSD reader (Meso Scale Discovery, Model Quick Plex SQ 120). The data was then analyzed by software Prism 7.0 from GraphPad and the dose-depended IRAK4 degradation were fit using a three-parameter logistic equation to calculate DC50.
The letter codes for IRAK4 DC50 include: A (<1 μM); B (1-10 μM); and C ([…]).

Structure (SMILES) | DC50
Cc1ncsc1-c1ccc(CNC(=O)[C@@H]2C[C@@H](O)CN2C(=O)[C@@H](NC(=O)COCCOCCN2CCN(C(=O)c3ccc(Nc4nc(-c5cccc(NC(=O)c6ccc(C(C)(C)C)cc6)c5C)cn(C)c4=O)cc3)CC2)C(C)(C)C)c(OCCOCCN(C)C[C@H]2CC[C@H](n3cc4cc(NC(=O)c5cccc(C(F)(F)F)n5)c(C(C)(C)O)cc4n3)CC2)c1 [Compound I-18] | 1000 to 10000 nM
CC(C)(O)c1cc2nc([C@H]3CC[C@H](CN4CC5(CC(C(CNc6cccc7c6C(=O)N(C6CCC(=O)NC6=O)C7=O)CN6CCC(c7ccc(Nc8nc(N9CCCCC9)cnc8C(N)=O)cc7)CC6)C5)C4)CC3)sc2cc1NC(=O)c1cccc(C(F)(F)F)n1 (stereo partly shown) [Compound I-7] | 1000 to 10000 nM
Cn1c(=O)n(C2CCC(=O)NC2=O)c2cccc(CCCCN(CCNC(=O)[C@H]3CC[C@H](n4cc5cc(NC(=O)c6cccc(C(F)(F)F)n6)c(C(C)(C)O)cc5n4)CC3)CC(=O)N3CCC(c4ccc(Nc5nc(N6CCCCC6)cnc5C(N)=O)cc4)CC3)c21 (stereo partly shown) [Compound I-15] | < 1000 nM
NC(=O)c1ncc(N2CCCCC2)nc1Nc1ccc(C2CCN(CCCCN(CCC3CCN(C[C@H]4CC[C@H](n5cc(NC(=O)c6cnn7ccc(N8CCOCC8)nc67)c(C(F)F)n5)CC4)CC3)c3cccc4c3C(=O)N(C3CCC(=O)NC3=O)C4=O)CC2)cc1 (stereo partly shown) [Compound I-6] | 1000 to 10000 nM
Cc1ncsc1-c1ccc(CNC(=O)[C@@H]2C[C@@H](O)CN2C(=O)[C@@H](NC(=O)COCCOCCN2CCC(c3ccc(Nc4nc(N5CCCCC5)cnc4C(N)=O)cc3)CC2)C(C)(C)C)c(OCCOCCN(C)C[C@H]2CC[C@H](n3cc4cc(NC(=O)c5cccc(C(F)(F)F)n5)c(C(C)(C)O)cc4n3)CC2)c1 [Compound I-17] | 1000 to 10000 nM
CC(C)(O)c1cc2nn([C@H]3CC[C@H](CN4CC5(CC(C(CNc6cccc7c6C(=O)N(C6CCC(=O)NC6=O)C7=O)CN6CCC(c7ccc(Nc8nc(N9CCCCC9)cnc8C(N)=O)cc7)CC6)C5)C4)CC3)cc2cc1NC(=O)c1cccc(C(F)(F)F)n1 (stereo partly shown) [Compound I-8] | < 1000 nM
CC(C)(O)c1cc2nc([C@H]3CC[C@H](CN4CCC(CCN(CCCCN5CCC(c6ccc(Nc7nc(N8CCCCC8)cnc7C(N)=O)cc6)CC5)c5cccc6c5C(=O)N(C5CCC(=O)NC5=O)C6=O)CC4)CC3)sc2cc1NC(=O)c1cccc(C(F)(F)F)n1 (stereo partly drawn) [Compound I-5, 3-((4-(1-(4-((2-(2,6-Dioxopiperidin-3-yl)-1,3-dioxoisoindolin-4-yl)(2-(1-(((1R,4R)-4-(5-(2-hydroxypropan-2-yl)-6-(6-(trifluoromethyl)picolinamido)benzo[d]thiazol-2-yl)cyclohexyl)methyl)piperidin-4-yl)ethyl)amino)butyl)piperidin-4-yl)phenyl)amino)-5-(piperidin-1-yl)pyrazine-2-carboxamide] | < 1000 nM
Cn1c(=O)n(C2CCC(=O)NC2=O)c2cccc(CCCCN(CCNC(=O)[C@H]3CC[C@H](n4cc5cc(NC(=O)c6cccc(C(F)(F)F)n6)c(C(C)(C)O)cc5n4)CC3)CC(=O)N3CC(N4CCC(c5ccc(Nc6nc(N7CCCCC7)cnc6C(N)=O)cc5)CC4)C3)c21 (stereo partly drawn) [Compound I-14, 3-((4-(1-(1-(2-((4-(1-(2,6-Dioxopiperidin-3-yl)-3-methyl-2-oxo-2,3-dihydro-1H-benzo[d]imidazole-4-yl)butyl)(2-((1R,4R)-4-(6-(2-hydroxypropan-2-yl)-5-(6-(trifluoromethyl)picolinamido)-2H-indazol-2-yl)cyclohexanecarboxamido)ethyl)amino)acetyl)azetidin-3-yl)piperidin-4-yl)phenyl)amino)-5-(piperidin-1-yl)pyrazine-2-carboxamide] | < 1000 nM
NC(=O)c1ncc(N2CCCCC2)nc1Nc1ccc(C2CCN(CC(CNc3cccc4c3C(=O)N(C3CCC(=O)NC3=O)C4=O)C3CC4(C3)CN(C[C@H]3CC[C@H](n5cc(NC(=O)c6cnn7ccc(N8CCOCC8)nc67)c(C(F)F)n5)CC3)C4)CC2)cc1 (stereo partly shown) [Compound I-9] | < 1000 nM
CC(C)(O)c1cc2nn([C@H]3CC[C@H](CN4CCC(CCN(CCCCN5CCC(c6ccc(Nc7nc(N8CCCCC8)cnc7C(N)=O)cc6)CC5)c5cccc6c5C(=O)N(C5CCC(=O)NC5=O)C6=O)CC4)CC3)cc2cc1NC(=O)c1cccc(C(F)(F)F)n1 (stereo partly shown) [Compound I-4] | < 1000 nM
